Laboratory results from patent publication US5100907A, “Hydantoin esters” (Lonza, Inc., priority 1990, dated 1992).

What was measured:
Emulsion stability tests = type: physicochemical; conditions: for Classification of Emulsion: 2% ester, 7% myristyl propionate, 91% water
Experimental: Emulsion stability tests were performed on the esters (I), and for comparison on the precursor esters (Ia), to determine the extent to which each stabilized a standardized solution of water and an oil, using a common procedure consisting of homogenizing a mixture containing the test ester (2%), myristyl propionate (7%), and water (91%). While two emulsifiers are normally used to prepare a cosmetic formulation, e.g. one with a high HLB and the other with a low HLB, the test method herein using only one emulsifier, i.e. the test ester, is fully indicative of the emulsifying attributes of these esters.
The tests were performed with emulsions (500 g), prepared by combining the test ester (10.0 g), myristyl propionate (35 g), and distilled water (455 g) in a container and homogenizing the contents for one minute, via a Kika-Werk Ultra-Turrax S D-45 homogenizer. The emulsions were poured into a one pound flint jar, capped, and periodically examined over a 55 day period.

[1] = Dispersion stability tests; type: physicochemical
Experimental: The dispersion stability tests were performed on the esters (I) to determine the extent each was able to disperse itself in an aqueous medium.
The dispersions were prepared by homogenizing a mixture of the test ester and water, after which repeated examination of the sample was effected for a period of 55 days. This test method is fully indicative of the dispersibility of these esters (I).
The dispersion tests were performed with the esters at 0.5% and 5.0% active levels in water, prepared by combining the test ester with distilled water, and homogenizing the mixture for one to three minutes, via a Kika-Werk Ultra-Turrax S D-45 homogenizer. The dispersions were poured into an eight ounce flint jar, capped, and periodically examined over a 55 day period.

[2] = HLB determination (weighted average method); type: physicochemical
Excerpt: Hydrophilic-Lipophilic Balance or HLB is a means of associating the hydrophilic and lipophilic characteristics between two surfactants. A "weighted average" method was used to determine the HLB of the esters (I), and by comparison of the precursor ester (Ia), in which two emulsifiers of known HLB values along with the test ester were incorporated in a mixture of mineral oil and water. Evaluation and HLB determination of each of a series of prepared emulsion samples were effected by visual inspection.
The HLB of the mixture "m" is calculated from the sum of the HLB contributions of each surfactant, "a", "b", "c", per Equation 2 which describes a system of oil, water, and three surfactants.
Given that [HLB]m, [HLB]a, and [HLB]b, are known, and the ideal amount of "a", "b", and "c" to prepare a perfect emulsion has been determined, then by rearrangement of Eq. 2, the HLB of "c" can be calculated by Equation 3.
To obtain the HLB of the test ester as surfactant "c", a series of formulations was prepared in which the known surfactant sorbitan monostearate (SMS) as "a" and the known surfactant POE 20 sorbitan monostearate (POE 20 SMS) as "b" were varied in amount (wt. %) relative to each other at a constant amount (1 wt. %) of "c", until an optimum emulsion was obtained. Different combinations of "a" and "b" were used to vary the HLB of "c", for emulsifying a 40:56 (wt. %) mixture of paraffin oil and distilled water (totaling 96 wt. %).
To prepare the emulsions, surfactants "a", "b", and "c", and the paraffin oil were combined in a 150 ml beaker and heated slowly with agitation to 70°-80° C. The value of "X" in each formulation was predetermined by rearranging Eq. 3 to solve for X, and then inserting into the equation various [HLB]c values for the test ester (i.e., 2, 3, 4, 5, 6 . . . ). The [HLB]c values chosen reflected a range that would likely contain the actual HLB of the test ester. Hot distilled water (70°-80° C.) was then slowly added with agitation. The total weight of all these reagents was 100 grams. The resulting emulsion was allowed to cool, with continued agitation, until the temperature dropped below 30° C.
A series of emulsions for each test was prepared, one at a time, and then examined as a set. Each sample within the series was evaluated and graded according to the quality of the emulsion by visual examination of droplet size.

Aspergillus niger = assay: Antimicrobial study against Aspergillus niger (mold); type: cell-based; conditions: methylolated C8/10 10,800 ppm, methylolated lauric 11,400 ppm, DMDMH 3,000 ppm, others 14,700 ppm
Experimental: (§1) The antimicrobial properties of typical esters (I) and (Ia) were tested by minimum inhibitory concentration (MIC) tests, along with certain known substances, against […] strains of organisms: a mold, Aspergillus niger; a gram-positive bacteria, Staphylococcus aureus; and two gram-negative bacteria, Escherichia coli and Pseudomonas aeruginosa. […] These tests were used to determine any effect on biocidal activity of the varying chain length of the ester.
(§2) The known substances, on which identical tests were also performed, included the biocide, dimethyloldimethylhydantoin or DMDMH (iv), and a series of three surfactants, i.e., the three common emulsifiers, sodium lauryl sulfate (SLS); ethylene glycol distearate (EGDS), in the form of the commercial product PEGOSPERSE 50 DS (Lonza Inc.); and polyoxyethylene 20 sorbitan monoleate (POE 20 SMO), in the form of the commercial product GLYCOSPERSE 0 20 (Lonza Inc.).
(§3) The tests entailed contaminating a preexisting micro-colony with a known quantity (ppm, concentration) of test material. Each colony was then examined periodically over a one week period. […] A test was deemed non-efficacious when there was no decrease in colony size. In an effort to avoid any possible solvent effect, the micro-study was conducted in a totally aqueous solvent system without use of any other solvent.

Staphylococcus aureus = assay: Antimicrobial study against Staphylococcus aureus (gram-positive bacteria); type: cell-based; conditions: methylolated C8/10 10,800 ppm, methylolated lauric 11,400 ppm, DMDMH 3,000 ppm, others 14,700 ppm
Experimental: as §1, §2, §3

Escherichia coli = assay: Antimicrobial study against Escherichia coli (gram-negative bacteria); type: cell-based; conditions: methylolated C8/10 10,800 ppm, methylolated lauric 11,400 ppm, DMDMH 3,000 ppm, others 14,700 ppm
Experimental: as §1, §2, §3

Pseudomonas aeruginosa = assay: Antimicrobial study against Pseudomonas aeruginosa (gram-negative bacteria); type: cell-based; conditions: methylolated C8/10 10,800 ppm, methylolated lauric 11,400 ppm, DMDMH 3,000 ppm, others 14,700 ppm
Experimental: as §1, §2, §3

2-(3-hydroxymethyl-5,5-dimethyl-1,3-diazacyclopentane-2,4-dion-1-yl)-ethylester of coconut fatty acid [Coconut Methylolated Ester]
ability to stabilize emulsions (Emulsion stability tests): the best emulsifiers tested | duration of stabilized emulsions (Emulsion stability tests): more than 22 days | stability of dispersions in water [1]: stable for weeks

2-(5,5-dimethyl-1,3-diazacyclopentane-2,4-dion-1-yl)-ethyl ester of isostearic acid [Isostearic Non-Methylolated Ester]
Average HLB [2]: 7.0 | HLB Range [2]: 6-7 | Classification of Emulsion (Emulsion stability tests; 7 Days after preparation): 2-Phase | Classification of Emulsion (Emulsion stability tests; 22 Days after preparation): 2-Phase | Classification of Emulsion (Emulsion stability tests; 55 Days after preparation): 2-Phase

CC(=O)OCCN1C(=O)NC(=O)C1(C)C [Acetic Non-Methylolated Ester, 2-(5,5-dimethyl-1,3-diazacyclopentane-2,4-dion-1-yl)-ethyl ester of acetic acid]
Average HLB [2]: 7.0 | HLB Range [2]: 6-8 | Classification of Emulsion (Emulsion stability tests; 2 Hours after preparation): 2-Phase | Classification of Emulsion (Emulsion stability tests; 7 Days after preparation): 2-Phase | Classification of Emulsion (Emulsion stability tests; 22 Days after preparation): 2-Phase | Classification of Emulsion (Emulsion stability tests; 55 Days after preparation): 2-Phase

CCCCCCCCCCCC(=O)OCCN1C(=O)NC(=O)C1(C)C [Non-Methylolated Lauric Ester, 2-(5,5-dimethyl-1,3-diazacyclopentane-2,4-dion-1-yl)-ethyl ester of lauric acid]
Average HLB [2]: 6.5 | HLB Range [2]: 5-7 | Colony Count (Aspergillus niger; Day 0): 300 × 1,000 | Colony Count (Aspergillus niger; Day 1): 200 × 1,000 | Colony Count (Aspergillus niger; Day 2): 200 × 1,000 | Colony Count (Aspergillus niger; Day 3): 220 × 1,000 | Colony Count (Aspergillus niger; Day 7): 150 × 1,000 | Colony Count (Staphylococcus aureus; Day 0): TNC | Colony Count (Staphylococcus aureus; Day 1): 500 × 1,000 | Colony Count (Staphylococcus aureus; Day 2): 3,000 × 1,000 | Colony Count (Staphylococcus aureus; Day 3): TNC | Colony Count (Staphylococcus aureus; Day 7): 30 × 1,000 | Colony Count (Escherichia coli; Day 0): TNC | Colony Count (Escherichia coli; Day 1): TNC | Colony Count (Escherichia coli; Day 2): TNC | Colony Count (Escherichia coli; Day 3): TNC | Colony Count (Escherichia coli; Day 7): TNC | Colony Count (Pseudomonas aeruginosa; Day 0): TNC | Colony Count (Pseudomonas aeruginosa; Day 1): TNC | Colony Count (Pseudomonas aeruginosa; Day 2): TNC | Colony Count (Pseudomonas aeruginosa; Day 3): 250 × 1,000 | Colony Count (Pseudomonas aeruginosa; Day 7): TNC

CCCCCCCC/C=C\CCCCCCCC(=O)OCCN1C(=O)NC(=O)C1(C)C [Oleic Non-Methylolated Ester, 2-(5,5-dimethyl-1,3-diazacyclopentane-2,4-dion-1-yl)-ethyl ester of oleic acid]
Average HLB [2]: 8.5 | HLB Range [2]: 8-9 | Classification of Emulsion (Emulsion stability tests; 7 Days after preparation): 2-Phase | Classification of Emulsion (Emulsion stability tests; 22 Days after preparation): 2-Phase | Classification of Emulsion (Emulsion stability tests; 55 Days after preparation): 2-Phase

CCCCCCCCCCCCCCCCCC(=O)OCCN1C(=O)NC(=O)C1(C)C [Stearic Non-Methylolated Ester, 2-(5,5-dimethyl-1,3-diazacyclopentane-2,4-dion-1-yl)-ethyl ester of stearic acid]
Average HLB [2]: 1.5 | HLB Range [2]: 1-3 | Classification of Emulsion (Emulsion stability tests; 2 Hours after preparation): 2-Phase | Classification of Emulsion (Emulsion stability tests; 7 Days after preparation): 2-Phase | Classification of Emulsion (Emulsion stability tests; 22 Days after preparation): 2-Phase | Classification of Emulsion (Emulsion stability tests; 55 Days after preparation): 2-Phase

mixture of the 2-(3-hydroxymethyl-5,5-dimethyl-1,3-diazacyclopentane-2,4-dion-1-yl)-ethylesters of caprylic acid and capric acid [Methylolated C8/10 Ester]
ability to stabilize emulsions (Emulsion stability tests): generally unable to stabilize an emulsion for more than two hours
